Experimental data: patent US4677100A, “Cephalosporin derivatives” (Banyu Pharmaceutical Co., Ltd., priority 1984, dated 1987)
Converted amounts (≈) assume the structure as drawn.

Key:
Test in all cases: MIC, agar plate dilution method
A. calcoaceticus No. 14 = format: cell-based; settings: Acinetobacter calcoaceticus; for MIC: A. calcoaceticus No. 14, 10^6 CFU/ml, Sensitivity Disk Agar, read-out: Minimum Inhibitory Concentration
Procedure: (§1) The minimum inhibitory concentrations (MIC: μg/ml) of the compounds of the present invention against various microorganisms were measured by an agar plate dilution method (inoculum size: 10^6 CFU/ml) by using Sensitivity Disk Agar (Nissui) in comparison with Cefotaxime and Ceftazidime as comparative compounds.

C. freundii No. 7 = format: cell-based; settings: Citrobacter freundii; C. freundii No. 7; 10^6 CFU/ml; Sensitivity Disk Agar; read-out: Minimum Inhibitory Concentration
Procedure: as §1

E. cloaceae Nek 39 = format: cell-based; settings: E. cloaceae Nek 39; 10^6 CFU/ml; Sensitivity Disk Agar; read-out: Minimum Inhibitory Concentration
Procedure: as §1

E. coli C/Rms149 = format: cell-based; settings: Escherichia coli, read-out: Minimum Inhibitory Concentration
Procedure: as §1

E. coli CSH2 = format: cell-based; settings: Escherichia coli, 10^6 CFU/ml, Sensitivity Disk Agar, read-out: Minimum Inhibitory Concentration
Procedure: as §1

E. coli CSH = format: cell-based; settings: Escherichia coli, read-out: Minimum Inhibitory Concentration
Procedure: as §1

E. coli ML1410/Rte16 = format: cell-based; settings: Escherichia coli, ML1410/RTE16, read-out: Minimum Inhibitory Concentration
Procedure: as §1

E. coli NIHJJC-2 = format: cell-based; settings: Escherichia coli, NIHJJC2; E. coli NIHJJC-2; 10^6 CFU/ml; Sensitivity Disk Agar; read-out: Minimum Inhibitory Concentration
Procedure: as §1

E. coli W3630/Rms212 = format: cell-based; settings: Escherichia coli, W3630/RMS212, read-out: Minimum Inhibitory Concentration
Procedure: as §1

E. coli W3630/Rms213 = format: cell-based; settings: Escherichia coli, W3630/RMS213, read-out: Minimum Inhibitory Concentration
Procedure: as §1

K. pneumoniae No. 42 = format: cell-based; settings: Klebsiella pneumoniae; K. pneumoniae No. 42; 10^6 CFU/ml; Sensitivity Disk Agar; read-out: Minimum Inhibitory Concentration
Procedure: as §1

P. mirabilis JY10 = format: cell-based; settings: Proteus mirabilis; P. mirabilis JY10; 10^6 CFU/ml; Sensitivity Disk Agar; read-out: Minimum Inhibitory Concentration
Procedure: as §1

P. vulgaris No. 33 = format: cell-based; settings: Proteus vulgaris; P. vulgaris No. 33; 10^6 CFU/ml; Sensitivity Disk Agar; read-out: Minimum Inhibitory Concentration
Procedure: as §1

P. vulgaris OB1043 = format: cell-based; settings: Proteus vulgaris; P. vulgaris OB1043; 10^6 CFU/ml; Sensitivity Disk Agar; read-out: Minimum Inhibitory Concentration
Procedure: as §1

S. aureus JS-1 = format: cell-based; settings: Staphylococcus aureus, JS1; S. aureus JS-1; 10^6 CFU/ml; Sensitivity Disk Agar; read-out: Minimum Inhibitory Concentration
Procedure: as §1

S. aureus NIHJJC-1 = format: cell-based; settings: Staphylococcus aureus, NIHJJC1; S. aureus NIHJJC-1; 10^6 CFU/ml; Sensitivity Disk Agar; read-out: Minimum Inhibitory Concentration
Procedure: as §1

S. marcescens No. 16-2 = format: cell-based; settings: Serratia marcescens, NO.162; S. marcescens No. 16-2; 10^6 CFU/ml; Sensitivity Disk Agar; read-out: Minimum Inhibitory Concentration
Procedure: as §1

P. aeruginosa AK109 = format: cell-based, Pseudomonas aeruginosa; settings: for MIC: Pseudomonas aeruginosa, P. aeruginosa AK109, 10^6 CFU/ml, Sensitivity Disk Agar, read-out: Minimum Inhibitory Concentration
Procedure: as §1

P. aeruginosa AKR17 = format: cell-based, Pseudomonas aeruginosa; settings: for MIC: Pseudomonas aeruginosa, P. aeruginosa AKR17, 10^6 CFU/ml, Sensitivity Disk Agar, read-out: Minimum Inhibitory Concentration
Procedure: as §1

P. cepacia 23 = format: cell-based, Pseudomonas cepacia; settings: for MIC: Burkholderia cepacia, P. cepacia 23, 10^6 CFU/ml, Sensitivity Disk Agar, read-out: Minimum Inhibitory Concentration
Procedure: as §1

P. maltophilia IID 1275 = format: cell-based, Pseudomonas maltophilia; settings: for MIC: Stenotrophomonas maltophilia, IID1275, P. maltophilia IID 1275, 10^6 CFU/ml, Sensitivity Disk Agar, read-out: Minimum Inhibitory Concentration
Procedure: as §1

SMILES	MIC (A. calcoaceticus No. 14)	MIC (C. freundii No. 7)	MIC (E. cloaceae Nek 39)	MIC (E. coli C/Rms149)	MIC (E. coli CSH2)	MIC (E. coli CSH)	MIC (E. coli ML1410/Rte16)	MIC (E. coli NIHJJC-2)	MIC (E. coli W3630/Rms212)	MIC (E. coli W3630/Rms213)	MIC (K. pneumoniae No. 42)	MIC (P. mirabilis JY10)	MIC (P. vulgaris No. 33)	MIC (P. vulgaris OB1043)	MIC (S. aureus JS-1)	MIC (S. aureus NIHJJC-1)	MIC (S. marcescens No. 16-2)	MIC (P. aeruginosa AK109)	MIC (P. aeruginosa AKR17)	MIC (P. cepacia 23)	further results
C[N+]1(CC2=C(C(=O)[O-])N3C(=O)C(NC(=O)C(=NOC4(C(=O)O)CCC4)c4csc(N)n4)C3SC2)Cc2cc(O)c(O)cc2C1 (centres unmarked) [Ex. 11-F, 7-[(Z)-2-(2-aminothiazol-4-yl)-2-(1-carboxy-1-cyclobutoxyimino)acetamido]-3-(5,6-dihydroxy-2-methyl-2-isoindolinium)methyl-3-cephem-4-carboxylate]	0.1 µg/mL (≈ 0.155 µM)	0.78 µg/mL (≈ 1.21 µM)	≤ 0.05 µg/mL	≤ 0.05 µg/mL	≤ 0.05 µg/mL	≤ 0.05 µg/mL	≤ 0.05 µg/mL	≤ 0.05 µg/mL	≤ 0.05 µg/mL	≤ 0.05 µg/mL	≤ 0.05 µg/mL	≤ 0.05 µg/mL	≤ 0.05 µg/mL	≤ 0.05 µg/mL	> 25 µg/mL	25 µg/mL (≈ 38.8 µM)	0.2 µg/mL (≈ 0.31 µM)	≤ 0.05 µg/mL	0.1 µg/mL (≈ 0.155 µM)	≤ 0.05 µg/mL	antibacterial activity relative to the compound of Reference Example (A. calcoaceticus No. 14): at least 32 times; antibacterial activity relative to the compound of Reference Example (P. aeruginosa AK109; Pseudomonas aeruginosa AK109): at least 16 times; antibacterial activity relative to the compound of Reference Example (P. aeruginosa AKR17; Pseudomonas aeruginosa AKR-17, resistant to all cephalosporins including Ceftazidime): at least 32 times; antibacterial activity relative to the compound of Reference Example (P. cepacia 23; Pseudomonas cepacia 23): at least 32 times; antibacterial activity relative to the compound of Reference Example (P. maltophilia IID 1275; Pseudomonas maltophilia resistant to all cephalosporins): at least twice as strong; MIC (P. maltophilia IID 1275): 1.56 µg/mL (≈ 2.42 µM)
CO/N=C(\C(=O)NC1C(=O)N2C(C(=O)[O-])=C(C[N+]3(C)Cc4ccc(OC(C)=O)cc4C3)CSC12)c1csc(N)n1 (centres unmarked) [Ex. 1-F]	25 µg/mL (≈ 42.6 µM)	1.56 µg/mL (≈ 2.66 µM)	0.78 µg/mL (≈ 1.33 µM)	0.1 µg/mL (≈ 0.17 µM)	≤ 0.05 µg/mL	0.78 µg/mL (≈ 1.33 µM)	0.1 µg/mL (≈ 0.17 µM)	≤ 0.05 µg/mL	0.2 µg/mL (≈ 0.341 µM)	0.78 µg/mL (≈ 1.33 µM)	0.2 µg/mL (≈ 0.341 µM)	0.39 µg/mL (≈ 0.665 µM)	0.1 µg/mL (≈ 0.17 µM)	0.78 µg/mL (≈ 1.33 µM)	6.25 µg/mL (≈ 10.7 µM)	0.39 µg/mL (≈ 0.665 µM)	12.5 µg/mL (≈ 21.3 µM)	3.12 µg/mL (≈ 5.32 µM)	> 25 µg/mL	6.25 µg/mL (≈ 10.7 µM)	MIC (P. maltophilia IID 1275): > 25 µg/mL
CO/N=C(\C(=O)NC1C(=O)N2C(C(=O)[O-])=C(C[N+]3(C)Cc4ccccc4C3)CSC12)c1csc(N)n1 (centres unmarked) [Reference Ex., 7-[(Z)-2-(2-aminothiazol-4-yl)-2-methoxyiminoacetamido]-3-(2-methyl-2-isoindolinium)methyl-3-cephem-4-carboxylate, reference compound]	25 µg/mL (≈ 47.3 µM)	1.56 µg/mL (≈ 2.95 µM)	0.78 µg/mL (≈ 1.48 µM)	0.1 µg/mL (≈ 0.189 µM)	≤ 0.05 µg/mL	0.39 µg/mL (≈ 0.738 µM)	0.05 µg/mL (≈ 0.0946 µM)	≤ 0.05 µg/mL	0.2 µg/mL (≈ 0.378 µM)	0.78 µg/mL (≈ 1.48 µM)	0.2 µg/mL (≈ 0.378 µM)	0.39 µg/mL (≈ 0.738 µM)	0.2 µg/mL (≈ 0.378 µM)	0.78 µg/mL (≈ 1.48 µM)	3.12 µg/mL (≈ 5.9 µM)	0.39 µg/mL (≈ 0.738 µM)	12.5 µg/mL (≈ 23.6 µM)	3.12 µg/mL (≈ 5.9 µM)	> 25 µg/mL	12.5 µg/mL (≈ 23.6 µM)	MIC (P. maltophilia IID 1275): > 25 µg/mL
